In patent publication USRE49351E1, “Cytoprotective agent” (Biogen MA Inc., priority 2009, dated 2023):
Marks after values point to notes of the source that are not given here.

Assays:
Assay type in all cases: in vivo
IL-6 = test: Real time RT-PCR of inflammation parameter IL-6 in brain of mouse cerebral infarction model; details: 10 mg/kg, ipsilesional (right) brain at 24 h, mean ± SE, n=6
Description: (§1) Using the Mouse Cerebral Infarction model changes of parameters related to inflammation among the triprenyl phenol compound (10 mg/kg) administration groups, the alteplase (10 mg/kg) administration groups, and the alteplase (10 mg/kg) and aspirin (10 mg/kg) combined administration group were evaluated by a real time RT-PCR method. As the parameters IL-1β, TNF-α nd IL-6 were selected, which were typical parameters related to inflammation.
(§2) The administrations of SMTP-7 (10 mg/kg) and alteplase (10 mg/kg) were initiated 1 hour or 3 hours after the initiation of ischemia. The administration method was same as Example 3.
(§3) The combined administration of alteplase (10 mg/kg) and aspirin (10 mg/kg) was initiated 3 hours after the initiation of ischemia. Alteplase was administered same as in Example 3, and aspirin was administered by a bolus intravenous injection into the femoral vein.
(§4) The administrations of SMTP-6, SMTP-22, SMTP-25, SMTP-43 and SMTP-44D were initiated 1 hour after the initiation of ischemia. The administration method was same as Example 5.
(§5) After 24 hours of the initiation of the operation, a Krebs-HEPES buffer was perfused from the heart and then the brain was extirpated.
(§6) After preparing brain slices, the fourth slice was divided to the left brain and the right brain, and homogenized respectively with 1 mL of TRIZOL (registered trademark) reagent (Invitrogen). After incubating at room temperature for 5 min, adding chloroform (0.2 mL), and mixing for 15 sec, incubation was carried out at room temperature for 3 min. The samples were centrifuged at 4° C. for 15 min at 12,000×g.
(§7) Since RNA moved to a water layer, the water layer was collected and, after addition of 0.5 mL of isopropyl alcohol, followed by incubation at room temperature for 10 min, centrifuged at 4° C. for 10 min at 12,000×g. Since a pellet was formed in a tube after the centrifugation, the supernatant was removed, and 1 mL of 75% ethanol was added followed by stirring to wash the pellet. The mixture was then centrifuged at 4° C. for 5 min at 7,500×g. After removing again the supernatant, being left for natural drying for 8 min, the pellet containing the RNA was dissolved in 100 μL of RNase-free water. cDNA was produced by reverse transcription of the RNA using a SuperScript (registered trademark) VILOTM cDNA Synthesis Kit (Invitrogen) by a Thermal Cycler 2720 (Applied Biosystems). More particularly, 4 μL of 5×VILOTM Reaction Mix, 2 μL of 10× SuperScript (registered trademark) Enzyme Mix, and 1 μg of each RNA were mixed and diluted to 20 μL with RNase-free water.
(§8) Reverse transcription was conducted using the above samples under the following conditions. After reacting at 25° C. for 10 min, at 42° C. for 60 min, and at 85° C. for 5 min, the product was stored at 4° C. With the cDNA as a template real time RT-PCR was carried out by ABI PRISM 7000 using SYBR (registered trademark) GreenERTM qPCR SuperMix for ABI PRISM (registered trademark; Invitrogen). […]
(§9) Real time RT-PCR was conducted using the above samples under the following conditions. […] Changes of the respective parameters were determined by a calibration curve method. β-actin was measured as an internal control, and the respective parameters were calculated as a relative value based on the β-actin. […]

TNF-α = test: Real time RT-PCR of inflammation parameter TNF-α in brain of mouse cerebral infarction model; details: 10 mg/kg, ipsilesional (right) brain at 24 h, mean ± SE, n=6
Description: as §1, §2, §3, §4, §5, §6, §7, §8, §9

IL-1β = test: Real time RT-PCR of inflammation parameter IL-1β in brain of mouse cerebral infarction model; details: 10 mg/kg, ipsilesional (right) brain at 24 h, mean ± SE, n=6
Description: as §1, §2, §3, §4, §5, §6, §7, §8, §9

[1] = system: mouse cerebral infarction model; test: Mouse cerebral infarction model: infarction area percentage, neurological symptom, edema percentage; details: evaluated 24 h, mean ± SE, n=6
Excerpt: Using male ddY line mouse (body weight 35 to 45 g), a cerebral infarction model was produced and evaluated about neurological symptoms and the infarction area percentage according to methods similar to the production method and the evaluation method for the Mongolian gerbil cerebral infarction model.
The improvement effectiveness of SMTP-7 and alteplase on the infarction area percentage, the neurological symptom and the edema percentage was compared using the mouse cerebral infarction model. At the same time the dose dependence of the degree of improvement of SMTP-7 was investigated.
SMTP-7 and alteplase were prepared as in Example 2. Ten mg/kg each was administered into the femoral vein 1 hour or 3 hours after the initiation of ischemia in a mouse cerebral infarction model, wherein 10% was administered by a bolus administration, and the rest by continuous administration over 30 min. Further, 0.1 mg/kg or 1 mg/kg of SMTP-7 was administered into the femoral vein 1 hour after the initiation of ischemia in a mouse cerebral infarction model, wherein 10% was administered by a bolus administration, and the rest by continuous administration over 30 min. Six mice were used for each condition.
Twenty four hours after the initiation of the operation neurological symptom of each mouse was examined to rate the neurological symptom. Then the brain of each mouse was extirpated and the infarction area was measured and the infarction area percentage was determined. The edema percentage was determined according to the following formula: Edema percentage (%)=(Volume of the cerebral hemisphere affected by ischemia−Volume of the other side cerebral hemisphere)/Volume of the other side cerebral hemisphere×100 […]

[2] = administration initiated 1 hr after ischemia
[3] = 10 mg/kg femoral vein, administration initiated 1 hr after ischemia
[4] = administration initiated 3 hr after ischemia
[5] = 0.1 mg/kg femoral vein, administration 1 hour after ischemia
[6] = 1 mg/kg femoral vein, administration 1 hour after ischemia
[7] = 10 mg/kg femoral vein, administration initiated 3 hr after ischemia

Compound	IL-6, relative value to β-actin (IL-6; [2])	TNF-α, relative value to β-actin (TNF-α; [2])	IL-1β, relative value to β-actin (IL-1β; [2])	Edema percentage [1, 3] [%]	Infarction area [1, 3] [%]	Neurological scores [1, 3]	IL-6, relative value to β-actin (IL-6; [4])	TNF-α, relative value to β-actin (TNF-α; [4])	IL-1β, relative value to β-actin (IL-1β; [4])	Edema percentage [1, 5] [%]	Infarction area [1, 5] [%]	Neurological scores [1, 5]	Edema percentage [1, 6] [%]	Infarction area [1, 6] [%]	Neurological scores [1, 6]	Edema percentage [1, 7] [%]	Infarction area [1, 7] [%]	Neurological scores [1, 7]
CC(C)=CCC/C(C)=C/CCC1(C)Oc2c(c(O)cc3c2CN(C(Cc2c[nH]c4ccccc24)C(=O)O)C3=O)CC1O (stereo not drawn) [SMTP-6]	0.220 ± 0.0850	0.261 ± 0.119	0.165 ± 0.0930	9.80 ± 2.74	9.81 ± 1.43	3 ± 0.447												
CC(C)=CCC/C(C)=C/CC[C@@]1(C)Oc2c(c(O)cc3c2CN(CCC[C@@H](C(=O)O)N2Cc4c(cc(O)c5c4O[C@](C)(CC/C=C(\C)CCC=C(C)C)[C@@H](O)C5)C2=O)C3=O)C[C@@H]1O [SMTP-7]	0.0356 ± 0.0138	0.151 ± 0.0313	0.0314 ± 0.0171	5.81 ± 0.967	4.87 ± 1.06	1.67 ± 0.422	0.0651 ± 0.0308	0.147 ± 0.0293	0.0728 ± 0.0380	10.15 ± 1.817	10.08 ± 2.07	2.5 ± 0.5	8.81 ± 2.292	6.66 ± 0.71	2 ± 0.632	6.23 ± 1.07	5.05 ± 0.576	1.33 ± 0.558
alteplase [reference compound]	0.0582 ± 0.0254	0.164 ± 0.0332	0.0408 ± 0.0173	3.63 ± 2.67	6.15 ± 1.94	1.17 ± 0.749	0.341 ± 0.138**^,#	0.381 ± 0.155	0.347 ± 0.172**^,##							12.6 ± 1.84	11.9 ± 2.26	2.50 ± 0.500
